One may read the pIC50 as the negative decadic logarithm of the IC50, by convention in mol/L.

This passage reports pIC50 results from ChEMBL document CHEMBL3102778, “Design of the influenza virus inhibitors targeting the PA endonuclease using 3D-QSAR modeling, side-chain hopping, and docking” (Bioorg Med Chem Lett, 2014).

Molecules are shown by their SMILES.

The assay can be described thus: Inhibition of influenza A virus RNA-dependent RNA polymerase subunit PA endonuclease activity.

Turning to `Cc1nc(NCC(=O)O)sc1S(=O)(=O)Nc1ccc2c(c1)N(O)C(=O)/C2=C(\O)c1ccccc1`, the pIC50 stood at 4.49.
With `CC(=O)c1c(O)n(O)c2cc(NC(=O)c3ccc4ccccc4c3)ccc12`, the pIC50 came to 5.05.
In the case of `O=C(Nc1ccc2c(c1)N(O)C(=O)/C2=C(\O)c1ccccc1)c1ccccc1` it was 5; in that of `O=C(O)/C(O)=C/C(=O)C1(Cc2ccc(Cl)cc2)CCCN(S(=O)(=O)Cc2ccccc2)C1` (stereo unspecified), 6.72; in that of `COc1ccc(/C=C2\N=C(Cc3ccccc3)C(=O)N(O)C2=O)cc1`, 5.55.
`OC(CN1CCCCC1)Cn1c2c(c3ccccc31)CCCC2` (stereo unspecified) showed a pIC50 of 4.44.
On to `CC/C(O)=C1/C(=O)N(O)c2cc(NC(=O)c3cccs3)ccc21`, for which the pIC50 is given as 4.46. The pIC50 values of the last two compounds are within 0.2 log units of each other.
For `COc1ccc(/C=C2\N=C(CC(C)C)C(=O)N(O)C2=O)cc1` the value was 6.1; for `O=C(Nc1ccccc1)Nc1ccc2c(C(=O)c3ccccc3)c(O)n(O)c2c1`, 4.54.
Regarding `O=C(Nc1ccc2c(c1)N(O)C(=O)/C2=C(\O)c1ccccc1)c1cccs1`, the pIC50 is 4.7.
Compound `O=C(/C=C/c1ccccc1Cl)Nc1ccc2c(c1)N(O)C(=O)/C2=C(\O)c1ccccc1` yielded a pIC50 of 5.02.
Take `O=C(Nc1ccc2c(c1)N(O)C(=O)/C2=C(\O)c1ccccc1)c1ccc(Cl)cc1Cl`: the negative logarithm of the IC50 (pIC50) was found to be 4.42.
In turn, `O=C(O)/C(O)=C/C(=O)C1(Cc2ccc(Cl)cc2)CCCN(Cc2ccccc2)C1` (stereo unspecified) returned a pIC50 of 5.96.
`O=C(Nc1ccc2c(c1)N(O)C(=O)/C2=C(\O)c1ccccc1)c1ccc2ccccc2c1` yielded a pIC50 of 5.1.
For `CC/C(O)=C1/C(=O)N(O)c2cc(NC(=O)c3cnc4ccccc4n3)ccc21` the value was 5; for `CCC(=O)c1c(O)n(O)c2cc(NC(=O)Nc3ccccc3Cl)ccc12`, 4.3.
For `O=C(O)/C(O)=C/C(=O)C1(Cc2ccc(Cl)cc2)CCN(Cc2ccc(Cl)cc2)CC1` the value was 6.27; for `CC(=O)c1c(O)n(O)c2cc(NC(=O)Nc3cccc(C(=O)O)c3)ccc12`, 4.85; for `C/C(O)=C1/C(=O)N(O)c2cc(NC(=O)c3cccs3)ccc21`, 4.4.
Compound `CC/C(O)=C1/C(=O)N(O)c2cc(NC(=O)Nc3ccccc3)ccc21` showed a pIC50 of 4.4.
Regarding `C/C(O)=C1/C(=O)N(O)c2cc(NC(=O)/C=C/c3ccccc3Cl)ccc21`, the pIC50 is listed as 4.59.
Turning to `O=C(Nc1ccc2c(c1)N(O)C(=O)/C2=C(\O)c1ccccc1)C1CCCCC1`, the pIC50 is given as 4.75.
Consider `C/C(O)=C1/C(=O)N(O)c2cc(NC(=O)c3cnc4ccccc4n3)ccc21`, for which the pIC50 came out at 4.96.
For `CCC(=O)c1c(O)n(O)c2cc(NC(=O)Nc3ccc(Cl)cc3)ccc12` the value was 4.42; for `CC(C)CC1=N/C(=C\c2ccccc2)C(=O)N(O)C1=O`, 5.32; for `CC(C)/C=C1\N=C(CC(C)C)C(=O)N(O)C1=O`, 5.26.
`O=C1C(Cc2ccc(F)cc2)=N/C(=C\c2ccccc2)C(=O)N1O`: the pIC50 stood at 5.19.
Compound `O=C1C(Cc2ccccc2)=N/C(=C\c2ccc(F)cc2)C(=O)N1O` gave a pIC50 of 5.46.
`O=C1/C(=C(\O)c2ccccc2)c2ccc(NS(=O)(=O)c3cccs3)cc2N1O`: the pIC50 is given as 4.32.
Regarding `O=C(Nc1ccc2c(C(=O)c3ccccc3)c(O)n(O)c2c1)NC1CCCCC1`, the pIC50 is recorded as 4.3.
Take `CCC(=O)c1c(O)n(O)c2cc(NC(=O)c3ccc(Cl)cc3Cl)ccc12`: the pIC50 amounted to 4.35.
For `CC/C(O)=C1/C(=O)N(O)c2cc(NC(=O)Nc3cccc(C(=O)O)c3)ccc21` the value was 5; for `CC/C(O)=C1/C(=O)N(O)c2cc(NC(=O)/C=C/c3ccccc3Cl)ccc21`, 5.1; for `O=C(Nc1ccc2c(c1)N(O)C(=O)/C2=C(\O)c1ccccc1)c1cnc2ccccc2n1`, 4.77.
`CC(C)CC1=N/C(=C\c2ccc(F)cc2)C(=O)N(O)C1=O` gave a pIC50 of 6.05.
Compound `Cc1cc(C(=O)Nc2ccc3c(c2)N(O)C(=O)/C3=C(\O)c2ccccc2)no1` registered a negative-log IC50 (pIC50) of 5.02.
